“And” between values parts separate entries of the source, which are not always exact repeats. Equal entries are not always repeated. Toxic doses and inconclusive results are not listed. Cut-off read from the data, not from the text of the source: active = T/C of 150% or more; inactive = T/C below 125%.
Tested on: L1210 leukemia ip in BDF1 mice, survival T/C
Test: NCI In Vivo Anticancer Drug Screen. Data for tumor model L1210 Leukemia (intraperitoneal) in B6D2F1 (BDF1) mice
Details: endpoint: mean survival time, higher = longer survival
In short: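 Ratio derived from survival: compound-dosed mice over vehicle-dosed mice, all bearing a transplantable tumor.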

[1] = dose: 100.0 mg/kg/injection, schedule: Q01DX001 (ip), vehicle: carboxymethylcellulose (CMC)
[2] = dose: 200.0 mg/kg/injection, schedule: Q01DX001 (ip), vehicle: carboxymethylcellulose (CMC)
[3] = dose: 100.0 mg/kg/injection, schedule: Q01DX009 (ip), vehicle: Klucel (hydroxypropylcellulose) (HPC)
[4] = dose: 200.0 mg/kg/injection, schedule: Q01DX009 (ip), vehicle: Klucel (hydroxypropylcellulose) (HPC)
[5] = dose: 400.0 mg/kg/injection, schedule: Q01DX009 (ip), vehicle: Klucel (hydroxypropylcellulose) (HPC)
[6] = dose: 100.0 mg/kg/injection, schedule: Q04DX003 (ip), vehicle: saline with Tween-80
[7] = dose: 200.0 mg/kg/injection, schedule: Q04DX003 (ip), vehicle: saline with Tween-80
[8] = dose: 100.0 mg/kg/injection, schedule: Q04DX003 (ip), vehicle: Klucel (hydroxypropylcellulose) (HPC)
[9] = dose: 200.0 mg/kg/injection, schedule: Q04DX003 (ip), vehicle: Klucel (hydroxypropylcellulose) (HPC)
[10] = dose: 400.0 mg/kg/injection, schedule: Q04DX003 (ip), vehicle: Klucel (hydroxypropylcellulose) (HPC)
[11] = dose: 50.0 mg/kg/injection, schedule: Q01DX009 (ip), vehicle: saline with Tween-80
[12] = dose: 100.0 mg/kg/injection, schedule: Q01DX009 (ip), vehicle: saline with Tween-80
[13] = dose: 200.0 mg/kg/injection, schedule: Q01DX009 (ip), vehicle: saline with Tween-80
[14] = dose: 50.0 mg/kg/injection, schedule: Q01DX001 (ip), vehicle: saline
[15] = dose: 100.0 mg/kg/injection, schedule: Q01DX001 (ip), vehicle: saline
[16] = dose: 200.0 mg/kg/injection, schedule: Q01DX001 (ip), vehicle: saline
[17] = dose: 400.0 mg/kg/injection, schedule: Q01DX001 (ip), vehicle: saline
[18] = dose: 400.0 mg/kg/injection, schedule: Q04DX003 (ip), vehicle: saline with Tween-80
[19] = dose: 100.0 mg/kg/injection, schedule: Q04DX002 (ip), vehicle: saline with Tween-80
[20] = dose: 200.0 mg/kg/injection, schedule: Q04DX002 (ip), vehicle: saline with Tween-80
[21] = dose: 400.0 mg/kg/injection, schedule: Q04DX002 (ip), vehicle: saline with Tween-80
[22] = dose: 400.0 mg/kg/injection, schedule: Q01DX009 (ip), vehicle: saline with Tween-80

Measured: T/C

CC(=S)SCC(C)C
inactive: dose: 50.0 mg/kg/injection, schedule: Q01DX001 (ip), vehicle: carboxymethylcellulose (CMC) 101 % of control | [1] 101 % of control | [2] 104 % of control | dose: 400.0 mg/kg/injection, schedule: Q01DX001 (ip), vehicle: carboxymethylcellulose (CMC) 93 % of control

O=C(Nc1ccccc1F)C(Br)C(Br)c1ccccc1 (stereo not given)
inactive: [3] 92 % of control | [4] 100 % of control | [5] 96 % of control

CC(=O)N/N=C/c1ccc(N(C)C)cc1
inactive: [1] 94 % of control | [2] 94 % of control

O=C1c2ccccc2C(=O)N1CN1C(=O)c2ccccc2C1=O
inactive: [6] 88 % of control | [7] 91 % of control

NCCc1ccc(S(=O)(=O)O)cc1[N+](=O)[O-]
inactive: [3] 96 % of control | [8] 98 % of control | [4] 89 % of control | [9] 94 % of control | [10] 98 % of control

CCCCCCCCCCN(CCCCCCCCCC)C(C)C(=O)c1ccc2cc(Br)c3ccccc3c2c1 (stereo not given)
inactive: dose: 55.0 mg/kg/injection, schedule: Q01DX Z (ip), vehicle: methylcellulose (MC) 93 % of control | dose: 83.0 mg/kg/injection, schedule: Q01DX Z (ip), vehicle: methylcellulose (MC) 100 % of control | dose: 125.0 mg/kg/injection, schedule: Q01DX Z (ip), vehicle: methylcellulose (MC) 93 % of control

O=C(O)c1cc2c(Br)cccc2c2cc(C(F)(F)F)ccc12
inactive: [6] 97 % of control | [7] 113 % of control

COc1ccc(OC(=O)Nc2ccc(Cl)cc2Cl)cc1
inactive: [11] 102 % of control | [12] 91 % of control | [13] 98 % of control

Fc1cc(F)c(CCl)c(F)c1
inactive: dose: 100.0 mg/kg/injection, schedule: Q01DX009 (ip), vehicle: acetone 94 % of control

Cc1ccccc1NP1(=O)OCCCN1Cc1ccc(Cl)cc1 (stereo not given)
inactive: [14] 106 % of control | [15] 102 % of control | [16] 106 % of control | [17] 100 % of control

O=C1/C(=C\c2cccc3ccccc23)CS(=O)(=O)C/C1=C/c1cccc2ccccc12
inactive: [15] 95 % of control | [16] 94 % of control | [17] 94 % of control

O=C(O)CCC(=O)Nc1ccc(S(=O)(=O)Nc2nccs2)cc1
inactive: dose: 3.5 mg/kg/injection, schedule: Q01DX009 (ip), vehicle: Klucel (hydroxypropylcellulose) (HPC) 93 % of control | dose: 5.3 mg/kg/injection, schedule: Q01DX009 (ip), vehicle: Klucel (hydroxypropylcellulose) (HPC) 93 % of control | dose: 8.0 mg/kg/injection, schedule: Q01DX009 (ip), vehicle: Klucel (hydroxypropylcellulose) (HPC) 91 % of control | [3] 94 % of control | [8] 101 % of control | [4] 98 % of control | [9] 103 % of control | [5] 94 % of control | [10] 97 % of control

COc1ccc(Cl)cc1NC(=O)Nc1nccs1
inactive: [3] 98 % of control | [8] 101 % of control | [4] 92 % of control | [9] 97 % of control | [10] 95 % of control

N#Cc1ccc(C#N)c2ccccc12
inactive: [6] 96 % of control | [7] 98 % of control | [18] 96 % of control

CCSCCOP(=S)(N(CC)CC)N(CC)CC
inactive: [19] 88 % of control | [20] 95 % of control | [21] 104 % of control

Nc1cc(=O)[nH]c(=S)n1-c1ccc(Br)cc1
inactive: [14] 93 % of control | [15] 102 % of control | [16] 93 % of control | [17] 108 % of control

O=S(=O)(O)c1cc(O)c2ccc(NNC(O)c3ccc(Cl)c(Cl)c3)cc2c1 (stereo not given)
inactive: dose: 100.0 mg/kg/injection, schedule: Q04DX003 (ip), vehicle: saline 87 % of control | dose: 200.0 mg/kg/injection, schedule: Q04DX003 (ip), vehicle: saline 96 % of control | dose: 400.0 mg/kg/injection, schedule: Q04DX003 (ip), vehicle: saline 98 % of control

CCN(C(=O)Nc1cccc(C(F)(F)F)c1)c1ccccc1C(F)(F)F
inactive: [8] 98 % of control | [9] 91 % of control | [10] 93 % of control

O=C(OC(=O)c1cccc(-c2ccccc2)c1)c1cccc(-c2ccccc2)c1
inactive: [8] 104 % of control | [9] 101 % of control | [10] 96 % of control

CN(C)C(=S)Oc1c(Cl)cc(Cl)cc1S(=O)(=O)F
inactive: [8] 104 % of control | [9] 98 % of control | [10] 98 % of control

CC1(C)CC(C)(c2ccc(O)cc2)Oc2ccccc21 (stereo not given)
inactive: [6] 93 % of control | [7] 89 % of control

CCNC(=O)CS(=O)(=O)c1ccc(C)cc1
inactive: [6] 101 % of control | [7] 94 % of control | [18] 97 % of control

CCN(CCNC(=O)NC(C)(C)C)c1ccccc1
inactive: [12] 115 % of control and 91 % of control | [19] 96 % of control and 100 % of control | [6] 97 % of control | [13] 97 % of control and 91 % of control | [20] 96 % of control and 97 % of control | [7] 106 % of control | [22] 97 % of control and 88 % of control | [21] 94 % of control and 89 % of control | [18] 92 % of control

O=C1C(=O)C2=C(NCCC2)C(O)=C1Cl
inactive: dose: 100.0 mg/kg/injection, schedule: Q01DX001 (ip), vehicle: water 93 % of control | dose: 200.0 mg/kg/injection, schedule: Q01DX001 (ip), vehicle: water 95 % of control | dose: 400.0 mg/kg/injection, schedule: Q01DX001 (ip), vehicle: water 98 % of control

COC1=CC2C3=C(C(NC=O)CCc4cc(O)c(OC)c(OC)c43)C2C1=O (stereo not given)
inactive: [6] 101 % of control | [7] 93 % of control | [18] 108 % of control

O=S(=O)(Cl)c1ccc(F)cc1
inactive: [12] 98 % of control | [13] 96 % of control | [22] 90 % of control

CN(C)C=Nc1c(I)cc(I)c(CCC(=O)O)c1I
inactive: [15] 96 % of control | [16] 96 % of control | [17] 94 % of control

COc1cc(C2=N/C(=C\c3cc(Cl)cc(Cl)c3O)C(=O)O2)cc(OC)c1OC
inactive: dose: 100.0 mg/kg/injection, schedule: Q04DX002 (ip), vehicle: Klucel (hydroxypropylcellulose) (HPC) 107 % of control | dose: 200.0 mg/kg/injection, schedule: Q04DX002 (ip), vehicle: Klucel (hydroxypropylcellulose) (HPC) 110 % of control | dose: 400.0 mg/kg/injection, schedule: Q04DX002 (ip), vehicle: Klucel (hydroxypropylcellulose) (HPC) 100 % of control

CC(=O)c1ccc(N=C=O)cc1
inactive: dose: 400.0 mg/kg/injection, schedule: Q01DX001 (ip), vehicle: saline with Tween-80 95 % of control

CCCCc1c(Cl)nc(Cl)nc1Cl
inactive: dose: 25.0 mg/kg/injection, schedule: Q01DX009 (ip), vehicle: saline with Tween-80 105 % of control | [11] 88 % of control
